Laboratory results published in patent US20250296938A1, “Compounds that Interact with the Ras Superfamily for the Treatment of Cancers, Inflammatory Diseases, Rasopathies, and Fibrotic Disease” (SHY Therapeutics, LLC, priority 2018, published 2025).
Read-outs that look alike come from different tables or passages of the source.

What was measured:
Assay in all cases: Ras GTP binding domain inhibition assay (Cy3-GTP/Cy5-GTP competition)
[1] = target: Rho-A (Homo sapiens, UniProt P61586)
Outline: (§1)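 First, His-tagged protein is coated on nickel wells overnight at 4 °C. Next, compound (20 μM single point or serial dilution) is added for 3 h at room temperature, with or without Sos exchange factor in the last hour. Finally, 100 nM labelled GTP binds for 45 min and retained signal is measured.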

[2] = target: T1, KRas G12D mutant (Homo sapiens, UniProt P01116, G12D); conditions: at 20 μM
T1 construct: fused on or other part: His tag, used for capture on nickel-coated plates
Outline: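 Compounds tested at 20 μM or in serial dilution for IC50 against nickel-captured His-tagged GTPase, 3 hours at room temperature, with or without His-Sos GEF added for last hour. Fluorescent GTP then added at 100 nM for 45 minutes; wells washed, bound label measured by fluorescence.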

[3] = target: Rac-1 (Homo sapiens, UniProt P63000)
Outline: as §1

[4] = with SOS, read-out: Rho-A + SOS: % inh.
[5] = without SOS, read-out: Rho-A: % inh.
[6] = with SOS, read-out: KRas G12D mutant + SOS: % inh.
[7] = without SOS, read-out: KRas G12D mutant: % inh.
[8] = with SOS, read-out: Rac-1 + SOS: % inh.
[9] = without SOS, read-out: Rac-1: % inh.

SMILES	inhibition at 20 µM [1, 4]	inhibition at 20 µM [1, 5]	inhibition at 20 µM [2, 6]	inhibition at 20 µM [2, 7]	inhibition at 20 µM [3, 8]	inhibition at 20 µM [3, 9]	Rho-A + SOS: % inh. ([1]; at 20 μM, with SOS)	Rho-A: % inh. ([1]; at 20 μM, without SOS)	KRas G12D mutant: % inh. ([2]; without SOS)	Rac-1 + SOS: % inh. ([3]; at 20 μM, with SOS)	Rac-1: % inh. ([3]; at 20 μM, without SOS)
Oc1nc(-c2ncc3n2CCCC3)nc2c(-c3ccccn3)csc12 [drawing 968]	76 to 100%	26 to 50%	51 to 75%	51 to 75%	76 to 100%	51 to 75%					
Oc1nc(-c2ncc3ccccn23)nc2c(-c3ccccn3)csc12 [drawing 969]	76 to 100%	76 to 100%	51 to 75%	76 to 100%	76 to 100%	76 to 100%					
COC1CCN(c2nc(-c3nccn3C)nc3sc(-c4cnn(C)c4)c(-c4ccccc4)c23)C1 (stereo not drawn) [drawing 970]	76 to 100%	26 to 50%	76 to 100%	26 to 50%	0%	0%					
COc1ccc(-c2sc3nc(-c4nccn4C)nc(N4CCC(OC)C4)c3c2-c2ccccc2)cn1 (stereo not drawn) [drawing 971]	26 to 50%	51 to 75%	51 to 75%	26 to 50%	0%	0%					
COC1CCN(c2nc(-c3nccn3C)nc3sc(-c4ccnn4C)c(-c4ccccc4)c23)C1 (stereo not drawn) [drawing 972]	76 to 100%	51 to 75%	51 to 75%	51 to 75%	1 to 25%	26 to 50%					
COc1cccc(-c2sc3nc(-c4nccn4C)nc(N4CCC(OC)C4)c3c2-c2ccccc2)c1F.Cl (stereo not drawn) [drawing 973]			51 to 75%				C (51-75% inhibition)	A (1-25% inhibition)	C (51-75% inhibition)	0 (0% inhibition)	A (1-25% inhibition)
COc1ccc(Cn2cnc(-c3nc(O)c4scc(-c5ccccn5)c4n3)c2)cc1 [drawing 974]	0%	0%	0%	1 to 25%	1 to 25%	1 to 25%					
COc1nscc1-c1sc2nc(-c3nccn3C)nc(N3CCC(OC)C3)c2c1-c1ccccc1 (stereo not drawn) [drawing 975]	1 to 25%	1 to 25%	51 to 75%	26 to 50%	26 to 50%	26 to 50%					
COCCn1cc(-c2sc3nc(-c4nccn4C)nc(N4CCC(OC)C4)c3c2-c2ccccc2)cn1 (stereo not drawn) [drawing 976]	26 to 50%	26 to 50%	51 to 75%	51 to 75%	51 to 75%	51 to 75%					
COC1CCN(c2nc(-c3nccn3C)nc3sc(-c4cnc(C5CC5)o4)c(-c4ccccc4)c23)C1 (stereo not drawn) [drawing 977]	51 to 75%	26 to 50%	51 to 75%	51 to 75%	1 to 25%	1 to 25%					
COc1ncccc1-c1sc2nc(-c3nccn3C)nc(N3CCC(OC)C3)c2c1-c1ccccc1 (stereo not drawn) [drawing 978]	51 to 75%	51 to 75%	51 to 75%	51 to 75%	51 to 75%	26 to 50%					
COC1CCN(c2nc(-c3nccn3C)nc3sc(-c4cccnc4)c(-c4ccccc4)c23)C1 (stereo not drawn) [drawing 979]	51 to 75%	51 to 75%	51 to 75%	51 to 75%	51 to 75%	76 to 100%					
COc1cc(-c2sc3nc(-c4nccn4C)nc(N4CCC(OC)C4)c3c2-c2ccccc2)ccn1 (stereo not drawn) [drawing 980]	26 to 50%	1 to 25%	51 to 75%	51 to 75%	1 to 25%	26 to 50%					
Cc1cc(Cn2ccnc2-c2nc(O)c3scc(-c4ccccn4)c3n2)on1 [drawing 981]	26 to 50%	1 to 25%	26 to 50%	51 to 75%	51 to 75%	51 to 75%					
